Laboratory results taken from US20230167150A1, “CD33 LIGANDS SUITABLE FOR INCORPORATION INTO CARRIERS” (GLYCOMIMETICS, INC., priority 2020, published 2023).

Target: T1, CD33 (Homo sapiens, UniProt P20138)
T1 construct: purchased BioLegend 750106
Test: CD33 activity competitive binding assay (ELISA)
Settings: immobilized CD33-Fc; competition with Neu5Acα2-3Galβ1-3GalNAc-PAA-biotin; streptavidin/horseradish peroxidase, TMB, absorbance 450 nm
Experimental: The assay to screen for and characterize glycomimetic ligands of CD33 is a competitive binding assay, which allows the determination of IC50 values. CD33-Fc (BioLegend catalog item 750106) was immobilized in 96 well microtiter plates by incubation at 4° C. overnight. To reduce non-specific binding, bovine serum albumin was added to each well and incubated at room temperature for 3 hours. The plate was washed and serial dilutions of the test compounds were added to the wells in the presence of biotinylated polyacrylamide conjugated with Neu5Acα2-3Galβ1-3GalNAc-PAA-biotin (GlycoTech catalog item 01-088). After incubation at room temperature for 2 hours and washing, streptavidin/horseradish peroxidase was added to each well and incubated at room temperature for 30 minutes followed by an additional wash.
To determine the amount of glycopolymer bound to the immobilized CD33, the peroxidase substrate […] tetramethylbenzidine (TMB) was added. After 5 minutes, the enzyme reaction was stopped by the addition of H3PO4, and the absorbance of light at a wavelength of 450 nm was determined. The concentration of test compound required to inhibit binding by 50% was determined and reported as the IC50 value.

T1 sequence (P20138 18-364): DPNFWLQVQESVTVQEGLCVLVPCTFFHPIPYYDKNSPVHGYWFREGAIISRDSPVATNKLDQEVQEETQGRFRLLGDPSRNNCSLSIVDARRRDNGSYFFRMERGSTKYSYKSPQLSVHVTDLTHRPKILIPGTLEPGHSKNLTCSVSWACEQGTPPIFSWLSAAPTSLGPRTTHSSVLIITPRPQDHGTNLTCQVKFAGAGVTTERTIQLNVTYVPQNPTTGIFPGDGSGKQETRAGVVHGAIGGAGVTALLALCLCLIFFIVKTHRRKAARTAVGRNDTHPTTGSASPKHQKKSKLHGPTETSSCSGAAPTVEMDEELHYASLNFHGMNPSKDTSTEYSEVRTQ

| Structure (SMILES) | IC50 [µM] |
| --- | --- |
| Cc1cc(C(=O)NC[C@@H](O)[C@@H](O)C2O[C@@](OCCCN(Cc3ccccc3)C(=O)CCOCCOCCOCCOCCOCCOCCN=[N+]=[N-])(C(=O)O)CC(O)[C@H]2NC(=O)Cn2cc(C3CCCCC3)nn2)cc(C)c1O (some centres unmarked) [Compound 13] | 54 |
| Cc1cc(C(=O)NC[C@@H](O)[C@@H](O)C2O[C@@](OCCCN(CCc3ccccc3)C(=O)CCOCCOCCOCCOCCOCCOCCN=[N+]=[N-])(C(=O)O)CC(O)[C@H]2NC(=O)Cn2cc(C3CCCCC3)nn2)cc(C)c1O (some centres unmarked) [Compound 15] | 27 |
